Values of other authors in EP2566451B1, “PHARMACEUTICAL COMPOSITIONS COMPRISING CEFDITOREN PIVOXIL” (Bilgic, Mahmut, priority 2010, dated 2011).

Conditions: in water; stated in the background section, approximately

Which water solubility does the source give for CO/N=C(\C(=O)N[C@@H]1C(=O)N2C(C(=O)OCOC(=O)C(C)(C)C)=C(/C=C\c3scnc3C)CS[C@H]12)c1csc(N)n1 [Cefditoren pivoxil, (6R,7R)-pivaloyloxymethyl 7-[(Z)-2-(2-aminothiazol-4-yl)-2-(methoxyimino)acetamido]-3-[(Z)-2-(4-methylthiazol-5-yl)vinyl]-8-oxo-5-thia-1-azabicyclo[4.2.0]oct-2-ene-2-carboxylate] here?
The water solubility was “less than 1 mg/ml”.
